Results taken from patent publication US12077503B2, “Substituted cyclic amides and their use as herbicides” (FMC CORPORATION, priority 2015, dated 2024).

Experiments:
Type in all cases: in vivo
[1] = tested on: ryegrass, Italian (Italian ryegrass, Lolium multiflorum); assay: Test A postemergence; conditions: Lolium multiflorum, post-emergence, 240 h, 125 g ai/ha, Postemergence; visual injury after approximately 10 d; 0 to 100 scale where 0 is no effect and 100 is complete control; read-out: Plant response rating, Ryegrass, Italian
How it was run: (§1)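 Seeds sprayed preemergence with a directed soil spray, or plants at 2 to 10 cm height and one- to two-leaf stage sprayed postemergence, with test chemicals in a non-phytotoxic solvent mixture containing surfactant, in loam soil–sand blend. Injury rated visually against untreated controls after about 10 d in greenhouse, 0 (no effect) to 100 (complete control).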

[2] = tested on: Galium (catchweed bedstraw, Galium aparine); assay: Test A postemergence; conditions: Galium, post-emergence, 240 h, 125 g ai/ha, Postemergence; visual injury after approximately 10 d; 0 to 100 scale where 0 is no effect and 100 is complete control; read-out: Plant response rating, Galium
How it was run: as §1

corn (Zea mays) = assay: Test A postemergence; conditions: Zea mays, post-emergence, 240 h, 125 g ai/ha, Postemergence; visual injury after approximately 10 d; 0 to 100 scale where 0 is no effect and 100 is complete control
How it was run: as §1

[3] = tested on: blackgrass (Alopecurus myosuroides); assay: Test A postemergence; conditions: Alopecurus myosuroides, post-emergence, 240 h, 125 g ai/ha, Postemergence; visual injury after approximately 10 d; 0 to 100 scale where 0 is no effect and 100 is complete control; read-out: Plant response rating, Blackgrass
How it was run: as §1

[4] = tested on: ragweed (common ragweed, Ambrosia elatior); assay: Test A postemergence; conditions: Ambrosia artemisiifolia, post-emergence, 240 h, 125 g ai/ha, Postemergence; visual injury after approximately 10 d; 0 to 100 scale where 0 is no effect and 100 is complete control; read-out: Plant response rating, Ragweed
How it was run: as §1

[5] = tested on: wheat (Triticum aestivum); assay: Test A postemergence; conditions: Triticum aestivum, post-emergence, 240 h, 125 g ai/ha, Postemergence; visual injury after approximately 10 d; 0 to 100 scale where 0 is no effect and 100 is complete control; read-out: Plant response rating, Wheat
How it was run: as §1

[6] = tested on: barnyardgrass (Echinochloa crus-galli); assay: Test A postemergence; conditions: Echinochloa crus-galli, post-emergence, 240 h, 125 g ai/ha, Postemergence; visual injury after approximately 10 d; 0 to 100 scale where 0 is no effect and 100 is complete control; read-out: Plant response rating, Barnyardgrass
How it was run: as §1

[7] = tested on: pigweed (Amaranthus retroflexus); assay: Test A postemergence; conditions: Amaranthus retroflexus, post-emergence, 240 h, 125 g ai/ha, Postemergence; visual injury after approximately 10 d; 0 to 100 scale where 0 is no effect and 100 is complete control; read-out: Plant response rating, Pigweed
How it was run: as §1

Kochia (Kochia scoparia) [8] = assay: Test A postemergence; conditions: Bassia scoparia, post-emergence, 240 h, 125 g ai/ha, Postemergence; visual injury after approximately 10 d; 0 to 100 scale where 0 is no effect and 100 is complete control; read-out: Plant response rating, Kochia
How it was run: as §1

[9] = tested on: giant foxtail (Setaria faberii); assay: Test A postemergence; conditions: Setaria faberi, post-emergence, 240 h, 125 g ai/ha, Postemergence; visual injury after approximately 10 d; 0 to 100 scale where 0 is no effect and 100 is complete control; read-out: Plant response rating, Foxtail, Giant
How it was run: as §1

[10] = tested on: ryegrass, Italian (Italian ryegrass, Lolium multiflorum); assay: Test A preemergence; conditions: Lolium multiflorum, pre-emergence, 240 h
How it was run: as §1

[11] = tested on: ragweed (common ragweed, Ambrosia elatior); assay: Test A preemergence; conditions: Ambrosia artemisiifolia, pre-emergence, 240 h
How it was run: as §1

[12] = tested on: barnyardgrass (Echinochloa crus-galli); assay: Test A preemergence; conditions: Echinochloa crus-galli, pre-emergence, 240 h
How it was run: as §1

[13] = tested on: pigweed (Amaranthus retroflexus); assay: Test A preemergence; conditions: Amaranthus retroflexus, pre-emergence, 240 h
Kochia (Kochia scoparia) [14] = assay: Test A preemergence; conditions: Bassia scoparia, pre-emergence, 240 h
How it was run: as §1

[15] = tested on: giant foxtail (Setaria faberii); assay: Test A preemergence; conditions: Setaria faberi, pre-emergence, 240 h
How it was run: as §1

[16] = tested on: sedge, umbrella (small-flower umbrella sedge, Cyperus difformis); assay: Test B flooded paddy test; conditions: Cyperus difformis, Flood, 250 g ai/ha; scale of 0 to 100 where 0 is no effect and 100 is complete control; read-out: Sedge, Umbrella plant response rating
How it was run: (§2)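 Plants at 2-leaf stage flooded to 3 cm above soil, with compounds applied directly to paddy water and that depth maintained. Plants kept in greenhouse 13–15 d. Visual rating versus controls on a 0 (no effect) to 100 (complete control) scale.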

[17] = tested on: ducksalad (Heteranthera limosa); assay: Test B flooded paddy test; conditions: Heteranthera limosa, Flood, 250 g ai/ha; scale of 0 to 100 where 0 is no effect and 100 is complete control; read-out: Ducksalad plant response rating
How it was run: as §2

[18] = tested on: barnyardgrass (Echinochloa crus-galli); assay: Test B flooded paddy test; conditions: Echinochloa crus-galli, Flood, 250 g ai/ha; scale of 0 to 100 where 0 is no effect and 100 is complete control; read-out: Barnyardgrass plant response rating
How it was run: as §2

rice (Oryra sativa) = assay: Test B flooded paddy test; conditions: Oryza sativa, Flood, 250 g ai/ha; scale of 0 to 100 where 0 is no effect and 100 is complete control; read-out: Rice plant response rating
How it was run: as §2

Structure (SMILES): CC(C)Oc1ccc([C@H]2CN(C)C(=O)[C@@H]2C(=O)Nc2cccc(F)c2F)cc1 [Compound 953]
- pest or weed control at 125 g/ha [1]: 0%
- pest or weed control at 125 g/ha [2]: 20%
- Corn plant response rating (crop injury, 0 = no effect, 100 = complete kill) at 125 g/ha (corn (Zea mays)): 0%
- pest or weed control at 125 g/ha [3]: 0%
- pest or weed control at 125 g/ha [4]: 0%
- plant injury at 125 g/ha [5]: 0%
- pest or weed control at 125 g/ha [6]: 90%
- pest or weed control at 125 g/ha [7]: 0%
- pest or weed control at 125 g/ha (Kochia (Kochia scoparia) [8]): 30%
- pest or weed control at 125 g/ha [9]: 90%
- pest or weed control at 125 g/ha ([10]; 125 g ai/ha, Preemergence, visual injury rating after approximately 10 d, read-out: Ryegrass, Italian plant response rating (0 to 100 scale, 0 is no effect, 100 is complete control)): 0%
- pest or weed control at 500 g/ha ([10]; 500 g ai/ha, preemergence, visual injury rating about 10 d after treatment, 0 to 100 scale (0 no effect, 100 complete control), read-out: Ryegrass, Italian plant response rating): 60%
- pest or weed control at 125 g/ha ([11]; 125 g ai/ha, Preemergence, visual injury rating after approximately 10 d, read-out: Ragweed plant response rating (0 to 100 scale, 0 is no effect, 100 is complete control)): 0%
- pest or weed control at 500 g/ha ([11]; 500 g ai/ha, preemergence, visual injury rating about 10 d after treatment, 0 to 100 scale (0 no effect, 100 complete control), read-out: Ragweed plant response rating): 0%
- pest or weed control at 125 g/ha ([12]; 125 g ai/ha, Preemergence, visual injury rating after approximately 10 d, read-out: Barnyardgrass plant response rating (0 to 100 scale, 0 is no effect, 100 is complete control)): 90%
- pest or weed control at 500 g/ha ([12]; 500 g ai/ha, preemergence, visual injury rating about 10 d after treatment, 0 to 100 scale (0 no effect, 100 complete control), read-out: Barnyardgrass plant response rating): 90%
- pest or weed control at 125 g/ha ([13]; 125 g ai/ha, Preemergence, visual injury rating after approximately 10 d, read-out: Pigweed plant response rating (0 to 100 scale, 0 is no effect, 100 is complete control)): 0%
- pest or weed control at 500 g/ha ([13]; 500 g ai/ha, preemergence, visual injury rating about 10 d after treatment, 0 to 100 scale (0 no effect, 100 complete control), read-out: Pigweed plant response rating): 0%
- pest or weed control at 125 g/ha (Kochia (Kochia scoparia) [14]; 125 g ai/ha, Preemergence, visual injury rating after approximately 10 d, read-out: Kochia plant response rating (0 to 100 scale, 0 is no effect, 100 is complete control)): 60%
- pest or weed control at 500 g/ha (Kochia (Kochia scoparia) [14]; 500 g ai/ha, preemergence, visual injury rating about 10 d after treatment, 0 to 100 scale (0 no effect, 100 complete control), read-out: Kochia plant response rating): 60%
- pest or weed control at 125 g/ha ([15]; 125 g ai/ha, Preemergence, visual injury rating after approximately 10 d, read-out: Foxtail, Giant plant response rating (0 to 100 scale, 0 is no effect, 100 is complete control)): 90%
- pest or weed control at 500 g/ha ([15]; 500 g ai/ha, preemergence, visual injury rating about 10 d after treatment, 0 to 100 scale (0 no effect, 100 complete control), read-out: Foxtail, Giant plant response rating): 100%
- pest or weed control at 250 g/ha [16]: 0%
- pest or weed control at 250 g/ha [17]: 40%
- pest or weed control at 250 g/ha [18]: 20%
- pest or weed control at 250 g/ha (rice (Oryra sativa)): 0%
